Literature values in patent publication US6596297B2, “Biodegradable microbicidal vaginal barrier device” (New York Blood Center, Inc., priority 2002, dated 2003).

Test system: HIV-1

Nonoxynol-9 [N-9]
risk of sexual transmission of HIV-1: increase the risk of sexual transmission of HIV-1
